Test results published in patent US20260183316A1, “CANNABICHROMENE-TYPE CANNABINOID COMPOSITIONS, METHODS AND USES THEREOF” (Cronos Group Inc., priority 2022, published 2026).
Several values for one entry are separate records, joined by “and”; a condition that tells them apart may be missing. Equal entries are not always repeated.

How the values were obtained:
[1] = system: C57BL/6 mice; test: Elevated plus maze (EPM), modelled anxiety; format: in vivo; conditions: 10 mg/kg p.o., 30 minutes after treatment; for time spent in the closed arms of the EPM: post-hoc no differences
Method: (§1) In addition to the physiological assessment of the tetrad, mice were subjected to several behavioural assessments detailed here. These experiments followed a set timeline beginning 30 minutes after compound administration, based on an approximation that the maximum blood concentration of drug occurred 30-60 minutes after animals had received oral gavage. In these experiments the same type of mice were used for elevated plus maze, y-maze, and forced swim test back-to-back-to-back; however, this was a separate cohort of mice from those used in tetrad or PK experiments.
Modelled anxiety—the elevated plus maze: Mice were placed in the centre space of an elevated plus maze (EPM) standing 45 cm above the floor and having 2 closed-walled arms and 2 open arms each measuring 45 cm long. Mice were placed facing an open arm and their movement recorded for 5 minutes beginning 30 minutes after drug administration. Total distance travelled, arm entries, and time spent in each arm was recorded on a video camera and scored by an individual blinded to treatment group.

[2] = system: C57BL/6 mice; test: Catalepsy in the bar (ring) holding assay, tetrad; format: in vivo; conditions: for Lethargy Emax ± S.E.M.: catalepsy % MPE 60 sec, 5 min after 0.3-30 mg/kg p.o.; for dose-dependent catalepsy: ring holding assay 5 minutes after treatment, 0.3-30 mg/kg p.o.
Method: (§2) Female and male C57BL/6 mice between 8 and 12 weeks of age were used for these studies. Animals were group housed at the Laboratory Animal Services Unit (LASU) at the University of Saskatchewan (5 mice/cage for females, 3 mice/cage for males) with a standard 12:12 light-dark cycle, ad libitum access to food and water, and environmental enrichment. All compounds were prepared in a vehicle composed of ethanol and kolliphor in saline (1:1:8) for i.v. tail vein injections or olive oil for oral gavage (p.o.) at the doses indicated in description of the figures. Compounds were administered at the doses indicated in mg/kg body weight, with body weights being measured on the same day as drug administration. Experimenters were blinded to treatment for all assessments and analyses. Animals were purchased from Charles River Labs (Senneville, QC), rather than bred, to reduce animal numbers. At the end of experiments, mice were euthanized via isoflurane overdose and cardiac puncture. In all cases, experiments were performed with the approval of the University Animal Care Committee (UACC) at the University of Saskatchewan (Animal Use Protocol #20200043) and in keeping with the guidelines of the Canadian Council on Animal Care (CCAC).
(§3) Mice were assessed in the ‘tetrad’ battery of physiological and behavioural assessments. This included, in the following order: a bar holding assessment of catalepsy, rectal thermometer assessment of body temperature, a test of nociception in the warm water tail flick assay, and a test of locomotion and anxiety in the open field test (OFT). The precise timing of each measurement are stated in description of the figures. The same animals were used for all four measures of the tetrad.
Catalepsy was assessed in the bar holding assay after compound administration with mice placed so that their forepaws clasped a 0.7-cm ring clamp 4.5 cm above the surface of the testing space. The length of time the ring was held was recorded up to 60 sec (i.e., percent maximum possible effect [MPE] 60 seconds) with the trial ending if the mouse turned its […] or body or made three consecutive escape attempts. Activation of CB1R is associated with increased catalepsy.

[3] = system: rodents; conditions: intravenously administered, high doses (30 and 100 mg/kg); cited from earlier work
[4] = system: C57BL/6 mice; test: Body temperature by rectal thermometer, tetrad; format: in vivo; conditions: for dose-dependent hypothermia: 10 min after administration, 0.3-30 mg/kg p.o.; for Body temperature Emax ± S.E.M.: change in body temperature 10 min after 0.3-30 mg/kg p.o.
Method: as §2, §3
Body temperature was measured after compound administration by using a rectal thermometer. Activation of CB1R is associated with reduced body temperature.

[5] = Pharmacokinetic measurement of CBC in blood (HPLC-MS/MS); conditions: analyte CBC
[6] = system: C57BL/6 mice; test: Nociception in the warm water tail flick assay, tetrad; format: in vivo; conditions: for ED50: Mus musculus, po, 20 min, tail flick 52° C., read-out: Pain relief ED50 (95% C.I.); for ED50 / Pain relief Emax ± S.E.M.: 20 min after 0.3-30 mg/kg p.o.; for Pain relief Emax ± S.E.M.: tail flick % MPE 20 sec; for dose-dependent reduction in pain sensation: warm water tail flick 20 minutes after administration, 0.3-30 mg/kg p.o.
Method: as §2, §3
Activation of CB1R is associated with elevated tail-flick latency (i.e. less nociception as indicated by the mouse keeping their tail in the water longer).

[7] = system: Long Evans rats; conditions: CBC 3-30 mg/kg following D9-THC 3 mg/kg intraperitoneal; cited from earlier work
[8] = system: C57BL/6 mice; test: y-maze, modelled exploratory behaviour and cognition; format: in vivo; conditions: 10 mg/kg p.o., 40 min after administration
Method: as §1
Modelled exploratory behaviour and cognition—the y-maze: The y-maze consists of three […] long×15 cm wide arms equally spaced 120° apart. Mice were allowed to habituate to the y-maze with one arm closed off (the novel arm) for 15 minutes 1 day prior to the experiment. On testing day, mice were placed in the centre space the y-maze facing the novel arm. Movement and arm entries were recorded for 5 min beginning 40 minutes after drug administration. Total distance travelled, arm entries, and % correct alternations between each arm were recorded on a video camera and scored by an individual blinded to treatment group.

[9] = oral gavage once daily for 14 days, cited from earlier work
[10] = system: C57BL/6 mice; test: Open field test (OFT): locomotion and time in central quadrant; format: in vivo; conditions: for dose-dependent reduction in movement in the OFT / time spent in the center of the OFT (anxiety-reducing effect): 30 minutes after administration, 0.3-30 mg/kg p.o.; for ED50: po, 0.5 h; for Movement Emax ± S.E.M.: OFT distance in 5 minutes
Method: as §2, §3
Locomotion was measured in the open field test (OFT) after compound administration. Mice were placed in the centre of an open chamber measuring 1 m×1 m for 5 minutes. Total distance travelled and time spent in the central quadrant of the field are recorded on a video camera, and the video analyzed in EthoVision XT (Noldus Information Technology Inc., Leesburg, VA).

[11] = system: C57BL/6 mice; test: Forced swim test (FST), modelled behavioural despair and resiliency; format: in vivo; conditions: 10 mg/kg p.o., 50 min after administration
Method: as §1
Modelled behavioural despair and resiliency—the forced swim test: Mice were placed in 800 mL of 22° C. water in a clear beaker with a 10 cm diameter such that the depth of water was approximately 10-11 cm. Mice were allowed to swim and their movement recorded for 5 minutes beginning 50 minutes after drug administration. Time spent swimming and time spent immobile was recorded on a video camera and scored by an individual blinded to treatment group.

[12] = Pharmacokinetic measurement of THC in blood (HPLC-MS/MS); conditions: analyte THC
[13] = system: dogs; conditions: cited from earlier work
[14] = Mus musculus, OFT locomotion 30 min after 0.3-30 mg/kg p.o., read-out: Movement ED50 (95% C.I.)
[15] = time in central quadrant of OFT, 30 min after 0.3-30 mg/kg p.o.

## CCCCCc1cc(O)c2c(c1)OC(C)(CCC=C(C)C)C=C2 (racemic) [CBC, cannabichromene]
[1]
  open arm entries in the EPM: trend toward CBC producing more open arm entries than other groups, this was not statistically significant
  time spent in the closed arms of the EPM: trend toward less time spent in the closed arms
[2]
  Lethargy Emax ± S.E.M.: 1.1 ± 0.16 %
  dose-dependent catalepsy: no dose-dependent catalepsy
[3]
  tetrad effects: produced locomotor suppression, catalepsy, and hypothermia consistently at high doses
[4]
  dose-dependent hypothermia: no dose-dependent hypothermia
  Body temperature Emax ± S.E.M.: 0.53 ± 0.27 °C
[5]; 10 mg/kg i.v., Combined
  F: 100%
[5]; 10 mg/kg i.v., Female
  F: 100%
[5]; 10 mg/kg i.v., Male
  F: 100%
[5]; 10 mg/kg p.o., Combined
  F: 39%
[5]; 10 mg/kg p.o., Female
  F: 53%
[5]; 10 mg/kg p.o., Male
  F: 27%
[6]
  ED50: > 30 mg/kg
  Pain relief Emax ± S.E.M.: 37 ± 13%
  dose-dependent reduction in pain sensation: dose-dependent pain-relieving effects
[7]
  perceptual effects of D9-THC: did notsignificantly alter the perceptual effects of D9-THC
  response rates: decrease response rates
[8]
  % correct alternations in the y-maze: increased % correct alternations compared to vehicle
[9]
  concentrations in brain tissue: highest concentrations in brain tissue
[9]; of the four cannabinoids tested
  maximum observed concentration and AUC in plasma: highest maximum observed concentration and AUC
[10]
  dose-dependent reduction in movement in the OFT: dose-dependent reduction in movement
  time spent in the center of the OFT (anxiety-reducing effect): anxiety-reducing effect
[10]; [14]
  ED50: 35 mg/kg
[10]; 30 min after 0.3-30 mg/kg p.o.
  Movement Emax ± S.E.M.: 1,600 ± 340 cm
[10]; [15]
  Anxiety-reduction Emax ± S.E.M.: 32 ± 7.2 s

## CCCCCc1cc(O)c2c(c1)OC(C)(C)[C@@H]1CCC(C)=C[C@@H]21 [THC, tetrahydrocannabinol]
[1]
  overall movement in the EPM: reduced overall movement in the EPM, although this change was not statistically significant
  time in the center of the EPM: more time in the center compared to 1:6.92 (CBC:THC)
  time spent in the closed arms of the EPM: trend toward less time spent in the closed arms
[1]; not statistically significant
  time in the open arms of the EPM: appeared to suppress time in the open arms
[2]; Mus musculus, po, 5 min, catalepsy 5 min after 0.3-30 mg/kg p.o., male and female combined, read-out: Lethargy ED50 (95% C.I.)
  ED50: ~12 mg/kg
[2]
  Lethargy Emax ± S.E.M.: 76% and 76 ± 16%
  dose-dependent catalepsy: increasing catalepsy in a dose-dependent manner
[4]
  dose-dependent hypothermia: dose-dependent hypothermia
  Body temperature Emax ± S.E.M.: −2.8 °C and −2.8 ± 0.20 °C
[4]; Mus musculus, po, 10 min, 10 min after 0.3-30 mg/kg p.o., read-out: Body temperature ED50 (95% C.I.)
  ED50: ~0.2 mg/kg
[11]
  time swimming and time immobile in the FST compared to vehicle: further suppressed swimming time and increased immobile time
[12]; 10 mg/kg i.v., Combined
  F: 100%
[12]; 10 mg/kg i.v., Female
  F: 100%
[12]; 10 mg/kg i.v., Male
  F: 100%
[12]; 10 mg/kg p.o., Combined
  F: 15%
[12]; 10 mg/kg p.o., Female
  F: 33%
[12]; 10 mg/kg p.o., Male
  F: 3.7%
[6]
  ED50: ~3.8 mg/kg
  Pain relief Emax ± S.E.M.: 57% and 57 ± 16%
  dose-dependent reduction in pain sensation: dose-dependent reduction in pain sensation
[8]
  % correct alternations in the y-maze: appeared to reduce correct alternations
  overall locomotion in the y-maze: reduced overall locomotion
  total arm entries in the y-maze: lower
[10]
  dose-dependent reduction in movement in the OFT: dose-dependent reduction in movement
  time spent in the center of the OFT (anxiety-reducing effect): dose-dependent increase in the total time spent in the center of the OFT
[10]; [14]
  ED50: ~6.6 mg/kg
[10]; Mus musculus, time in central quadrant of OFT, 30 min after 0.3-30 mg/kg p.o., read-out: Anxiety-reduction ED50 (95% C.I.)
  ED50: > 30 mg/kg
[10]; Mus musculus, OFT, versus vehicle-treated level of approximately 3,300 cm in 5 minutes, read-out: reduction in movement at maximum effect
  Emax: 48%
[10]; 30 min after 0.3-30 mg/kg p.o.
  Movement Emax ± S.E.M.: 1,700 cm and 1,700 ± 980 cm
[10]; [15]
  Anxiety-reduction Emax ± S.E.M.: 81 ± 72 s

## CCCCCc1cc(OC(C)=O)c2c(c1)OC(C)(C)[C@@H]1CCC(C)=C[C@@H]21 [THC-OAc, tetrahydrocannabinol-o-acetate]
[13]
  degree of ataxia compared with Δ9-THC: 2 fold
